SMILES strings stand for the structures. Like-named read-outs stand apart in the source and are kept apart here.

Here are results for four compounds from patent US8791143B2, “Anthranilic diamide derivatives having cyclic side-chains” (priority 2010, dated 2014).

Data set [1] in a line: log P by HPLC on reversed-phase columns (EEC Directive 79/831 Annex V.A8). Format: physicochemical.
In data set [2] the test system is caterpillars of the armyworm (Spodoptera frugiperda). The data set can be described thus: Spodoptera frugiperda test (SPODFR spray treatment). Format: in vivo. The conditions noted are these: Spodoptera frugiperda, 168 h, read-out: activity in % (caterpillars killed).
The test system of data set [3] is adult Musca domestica. Description: Musca domestica test (MUSCDO). Format: in vivo. The following applies: 1152 h, read-out: activity (kill in %). As to the method: (§1) Solvent: dimethyl sulphoxide
Vessels containing a sponge treated with the active compound preparation of the desired concentration are populated with adult Musca domestica.
(§2) After 48 days, the kill in % is determined.

For data set [4], the system named is green peach aphid (Myzus persicae). The data set can be described thus: Myzus test (MYZUPE spray treatment). The format is in vivo. The following applies: Myzus persicae, 144 h, read-out: activity in % (aphids killed).
For data set [5], the system named is Boophilus microplus. The data set can be described thus: Boophilus microplus test (BOOPMI injection). The format is in vivo. The following applies: Rhipicephalus microplus, 168 h; 20 μg/animal, injection into the abdomen, after 7 days; read-out: activity in % (no fertile eggs laid). As to the method:
as §1
The active compound solution is injected into the abdomen (Boophilus microplus), and the animals are transferred into dishes and stored in a climate-controlled room.
The activity is assessed by […] of fertile eggs. 100% means that none of the ticks has laid any fertile eggs.

In data set [6] the test system is larvae of the mustard beetle (Phaedon cochleariae). Description: Phaedon test (PHAECO spray treatment). The following applies: Phaedon cochleariae, 168 h, read-out: activity in % (beetle larvae killed).
The test system of data set [7] is Lucilia cuprina larvae. Description: Lucilia cuprina test (LUCICU). The format is in vivo. The following applies: 1152 h, read-out: activity (kill in %). As to the method:
as §1
Vessels containing horse meat treated with the active ingredient preparation of the desired concentration are populated with about 20 Lucilia cuprina larvae.
as §2

Setting [8] is: reversed-phase C18 HPLC column, pH 2.7, HPLC reversed-phase C18, acidic range pH 2.7 (HCOOH), only or first value of the cell, read-out: log P.
[9] abbreviates: application rate 100 g/ha, after 7 days.
The mark [10] stands for this setting: application rate 100 g/ha, after 6 days.

Turning to `Cc1cc(C#N)cc(C(=O)NC2CCS(=O)(=O)C2)c1NC(=O)c1cc(Cn2nnc(C(F)(F)C(F)(F)F)n2)nn1-c1ncccc1Cl` (centres unmarked) [Example 38], the chromatographic logP in data set [1] (setting [8]) worked out at 2.82. The pest or weed control at 500 g/ha in data set [2] (application rate 500 g/ha, after 7 days) was found to be 100%; in data set [4] (application rate 500 g/ha, after 6 days) it was 100%; in data set [6] it was 100%. In addition, the pest or weed control at 100 ppm in data set [3] (100 ppm, after 48 days) came to 100%; in data set [7] (100 ppm, after 48 days), 100%. For the same compound, in data set [5], the pest or weed control at 0.02 mg was found to be 100%.
Regarding `Cc1cc(Cl)cc(C(=O)N[C@@H]2CCOC2=O)c1NC(=O)c1cc(Cn2nnc(C(F)(F)F)n2)nn1-c1ncccc1Cl` [Example 42], in data set [1] (pH 2.7), the “log P (second value after the slash)” value worked out at 2.53. In data set [1] (pH 2.7, log P), this compound had a chromatographic logP of 2.84. Further, the pest or weed control at 100 g/ha in data set [2], in data set [4] and in data set [6] was 100% in each case. Further, the pest or weed control at 100 ppm in data set [3] amounted to 90%; in data set [7], 100%. Also, the pest or weed control at 0.02 mg in data set [5] was found to be 100%.
For the compound `Cc1cc(C#N)cc(C(=O)N[C@@H]2CCOC2=O)c1NC(=O)c1cc(Cn2nnc(C(F)(F)C(F)(F)F)n2)nn1-c1ncccc1Cl` [Example 44], the chromatographic logP in data set [1] (setting [8]) came out at 2.9. The values for the pest or weed control at 100 g/ha in data set [2] (setting [9]), in data set [4] (setting [10]) and in data set [6] were 100%, 90% and 100%, respectively. The pest or weed control at 100 ppm in data set [3] (100 ppm, after 48 days) came to 100%; in data set [7] (100 ppm, after 48 days), 100%. Besides, the pest or weed control at 0.02 mg in data set [5] was determined as 100%.
As to `Cc1cc(C#N)cc(C(=O)NC2(c3cccc(C(F)(F)F)c3)CC2)c1NC(=O)c1cc(Cn2nnc(C(F)(F)F)n2)nn1-c1ncccc1Cl` [Example 65], the chromatographic logP in data set [1] (setting [8]) was found to be 3.97. The pest or weed control at 100 g/ha is 100% in data set [2] (setting [9]), 90% in data set [4] (setting [10]) and 100% in data set [6]. For the same compound, in data set [3] (20 ppm, after 48 days), the pest or weed control at 20 ppm turned out to be 80%. Moreover, the pest or weed control at 0.02 mg in data set [5] came to 100%. Besides, in data set [7] (100 ppm, after 48 days), the pest or weed control at 100 ppm amounted to 100%.
